Experimental data from patent US20140235685A1, “PHARMACEUTICAL COMPOSITIONS COMPRISING 4-BROMO-N-(IMIDAZOLIDIN-2-YLIDENE)-1H-BENZIMIDAZOL-5-AMINE FOR TREATING SKIN DISEASES” (Allergan, Inc., priority 2011, published 2014).

Test system: cutaneous blood flow in the microvasculature of the hind foot pad
Assay: Rat Blood Flow Assay (laser Doppler flowmetry, hind foot pad)
Type: in vivo
Experimental: α-adrenergic agonists that act on the sympathetic nervous system outflow can regulate cutaneous blood flow in response to temperature changes.
A laser Doppler microvascular perfusion monitor (Laser Doppler Flowmetry LDP technique), was used to monitor red blood cell perfusion in the microvasculature of the hind foot pad. The laser doppler flowmetry (LDP) is an OxyFlo Microvascular Perfusion Monitor, from Oxford Optronix LTd. UK.
Briefly, 15 μL of test articles were applied topically to one hind foot pad of anaesthetized CD rats and 15 μL of vehicle was applied to the other footpad. The hairless CD rats used are a spontaneous mutation model isolated from a Crl:CD(SD) colony in Charles River, in the late 1980s. Rederived in 1993 and subsequently transferred to Charles River, Raleigh, N.C. for barrier room production. […] Specific genetic analysis to identify the mutation has not been undertaken. Histopathology has determined the model is euthymic.
Thirty minutes following test article administration, dynamic blood flow changes were measured and recorded every 15 seconds for 4 minutes per temperature interval for 5 intervals (22° C.→37° C.→4° C.→37° C.→22° C.). Rats were placed on a 37° C. heat pad to increase their temperature and on an ice pad to decrease their temperature to 4° C. The level of blood flow in the two paws was compared. […] It has a significant difference.

What does the source list for `Brc1c(N=C2NCCN2)ccc2[nH]cnc12` [4-bromo-N-(imidazolidin-2-ylidene)-1H-benzimidazol-5-amine]?
effect on induced vessel dilation caused at 37° C. (topical application to the skin at a concentration of 0.5%, FIG. 1): inhibited the induced vessel dilation; overall blood flow inhibition (topical, 15 μL to one hind foot pad of anaesthetized hairless CD rats vs vehicle on other footpad, measured 30 min after application over 5 temperature intervals (22→37→4→37→22° C.), P=0.014): 17%
